Patent US10059704B2, “1,4-disubstituted 1,2,3-triazoles, methods for preparing same, and diagnostic and therapeutic uses thereof” (CENTRE NATIONAL DE LA RECHERCHE SCIENTIFIQUE (C.N.R.S.), priority 2011, dated 2018)
Like-named read-outs stand apart in the source and are kept apart here.

What was measured:
[1] = molecular target: nicotinic receptors Rα7 (Rattus norvegicus, UniProt Q05941); test: biochemical; format: binding
[2] = rat frontal cortex membranes, [125I]α-bungarotoxin 2 nM, 22° C., 3 hours, Ki calculated from IC50 (Cheng and Prussof), read-out: Activity on Rα7

nicotinic receptors Rα7, sequence (Q05941 23-502): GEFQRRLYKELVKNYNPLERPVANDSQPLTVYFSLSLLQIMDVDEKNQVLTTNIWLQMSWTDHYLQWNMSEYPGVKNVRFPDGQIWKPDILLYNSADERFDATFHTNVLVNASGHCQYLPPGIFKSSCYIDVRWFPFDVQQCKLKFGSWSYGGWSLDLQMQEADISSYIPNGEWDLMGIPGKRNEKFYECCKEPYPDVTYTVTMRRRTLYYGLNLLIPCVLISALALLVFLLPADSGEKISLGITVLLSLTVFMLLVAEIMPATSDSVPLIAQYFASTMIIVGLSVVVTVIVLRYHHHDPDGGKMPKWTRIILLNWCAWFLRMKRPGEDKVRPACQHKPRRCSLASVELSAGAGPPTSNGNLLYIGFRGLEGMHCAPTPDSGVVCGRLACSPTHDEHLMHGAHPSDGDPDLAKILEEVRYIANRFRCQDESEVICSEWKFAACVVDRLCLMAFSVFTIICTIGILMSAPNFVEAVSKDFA

Compound | Ki [1, 2] | melting point | Ki [1]
Fc1ccc(-c2cn([C@H]3CN4CCC3CC4)nn2)cc1F [Compound 45, (R)-3-(4-(3,4-difluorophenyl)-1H-1,2,3-triazol-1-yl) quinuclidine] | 10 ± 4 nM | 122 °C | –
FCc1cccc(-c2ccc(-c3cn([C@H]4CN5CCC4CC5)nn3)s2)c1 | – | 144 °C | –
FCc1ccc(-c2cn([C@H]3CN4CCC3CC4)nn2)cc1 [Compound 58, (R)-3-(4-(4-(Fluoromethyl)phenyl)-1H-1,2,3-triazol-1-yl)quinuclidine] | – | 138 °C | –
Fc1cccc(-c2cn([C@H]3CN4CCC3CC4)nn2)c1 [Compound 43, (R)-3-(4-(3-Fluorophenyl)-1H-1,2,3-triazol-1-yl)quinuclidine] | 10 ± 1 nM | 120 °C | –
COC(=O)c1ccc(-c2ccc(-c3cn([C@H]4CN5CCC4CC5)nn3)s2)cc1Cl | – | 200 °C | –
Fc1ccc(-c2ccc(-c3cn([C@H]4CN5CCC4CC5)nn3)s2)cn1 [Compound 87, (R)-3-[4-[5-(6-fluoro-3-pyridyl)-2-thienyl]-1H,1,2,3-triazol-1-yl]quinuclidine] | – | 163 °C | –
Fc1ccc(-c2cn(C3CCCN4CCCCC34)nn2)cc1 (stereo not drawn) | – | 142 °C | –
c1cc(-c2cn([C@H]3CN4CCC3CC4)nn2)ccn1 [Compound 50, (R)-3-(4-(Pyridin-4-yl)-1H-1,2,3-triazole-1-yl)quinuclidine] | – | 150 °C | –
c1cc2cc(-c3cn([C@H]4CN5CCC4CC5)nn3)ccc2o1 [Compound 56, (R)-3-(4-(Benzofuran-5-yl)-1H-1,2,3-triazol-1-yl)quinuclidine] | 3 ± 1 nM | 178 °C | –
COc1cccc(-c2cn([C@H]3CN4CCC3CC4)nn2)c1 [Compound 47, (R)-3-(4-(3-Methoxyphenyl)-1H-1,2,3-triazol-1-yl)quinuclidine] | 2.3 ± 1 nM | – | –
O=Cc1ccc(-c2cccc(-c3cn([C@H]4CN5CCC4CC5)nn3)c2)s1 [Compound 101, (R)-5-[3-[1-[quinuclidin-3-yl]-1H-1,2,3-triazol-4-yl]phenyl]thiophene-2-carbaldehyde] | – | 150 °C | 7 nM
OCc1cccc(-c2ccc(-c3cn([C@H]4CN5CCC4CC5)nn3)s2)c1 [Compound 85, (R)-[3-[5-[1-[quinuclidin-3-yl]-1H2,3-triazol-4-yl]-2-thienyl]phenyl]methanol] | – | 181 °C | –
O=[N+]([O-])c1ccc(-c2ccc(-c3cn([C@H]4CN5CCC4CC5)nn3)s2)cn1 | – | 160 °C | –
OCc1ccc(-c2ccc(-c3cn([C@H]4CN5CCC4CC5)nn3)o2)cc1 [Compound 84, (R)-[4-[5-[1-[quinuclidin-3-yl]-1H-1,2,3-triazol-4-yl]-2-furyl]-phenyl]-methanol] | – | 209 °C | 6 nM
Cl.ClCc1ccc(-c2ccc(-c3cn([C@H]4CN5CCC4CC5)nn3)s2)cc1 | – | 255 °C | –
OCc1ccc(-c2ccc(-c3cn([C@H]4CN5CCC4CC5)nn3)s2)cc1 [Compound 63, (R)-(4-(5-(1-(quinuclidin-3-yl)-1H-1,2,3-triazol-4-yl)thiophen-2-yl)phenyl)methanol] | 0.6 ± 0.2 nM | 253 °C | –
c1csc(-c2cn([C@H]3CN4CCC3CC4)nn2)c1 [Compound 53, (R)-3-(4-(Thiophen-2-yl)-1H-1,2,3-triazol-1-yl)quinuclidine] | 9.5 ± 3 nM | 137 °C | –
c1csc(-c2ccc(-c3cn([C@H]4CN5CCC4CC5)nn3)cc2)c1 [Compound 96, (R)-3-[4-[4-(2-thienyl)phenyl]-1H-1,2,3-triazol-1-yl]quinuclidine] | – | 214 °C | 135 nM
COc1ccc(-c2cn([C@H]3CN4CCC3CC4)nn2)cn1 [Compound 52, (R)-3-(4-(6-Methoxypyridin-3-yl)-1H-1,2,3-triazol-1-yl)quinuclidine] | 105 ± 29 nM | 155 °C | –
OCc1cccc(-c2ccc(-c3cn([C@H]4CN5CCC4CC5)nn3)cc2)c1 [Compound 95, (R)-[3-[4-[1-[quinuclidin-3-yl]-1H-1,2,3-triazol-4-yl]phenyl]phenyl]methanol] | 100 nM | 207 °C | –
Fc1ccccc1-c1cn([C@H]2CN3CCC2CC3)nn1 [Compound 44, (R)-3-(4-(2-Fluorophenyl)-1H-1,2,3-triazol-1-yl)quinuclidine] | 13 ± 3 nM | 94 °C | –
Clc1ccc(-c2cn([C@H]3CN4CCC3CC4)nn2)cc1 [Compound 39, (R)-3-(4-(4-Chlorophenyl)-1H-1,2,3-triazol-1-yl)quinuclidine] | 8 ± 3 nM | 144 °C | –
Cl.ClCc1ccc(-c2cn([C@H]3CN4CCC3CC4)nn2)cc1 | – | 240 °C | –
O=[N+]([O-])c1ccc(-c2cccc(-c3cn([C@H]4CN5CCC4CC5)nn3)c2)cn1 | – | 180 °C | –
Fc1ccc(-c2csc(-c3cn([C@H]4CN5CCC4CC5)nn3)c2)cn1 [Compound 88, (R)-3-[4-[4-(6-fluoro-3-pyridyl)-2-thienyl]-1H-1,2,3-triazol-1-yl]quinuclidine] | – | 136 °C | –
Clc1ccc(-c2cn([C@H]3CN4CCC3CC4)nn2)cc1Cl [Compound 40, (R)-3-(4-(3,4-Dichlorophenyl)-1H-1,2,3-triazol-1-yl)quinuclidine] | 19 ± 6 nM | 108 °C | –

Compound | Ki [1, 2] | melting point | Ki [1]
CN1CCN(Cc2ccc(-c3ccc(-c4cn([C@H]5CN6CCC5CC6)nn4)s3)cc2)CC1 [Compound 104, (R)-3-[4-[5-[4-[(4-methylpiperazin-1-yl)methyl]phenyl]-2-thienyl]-1H-1,2,3-triazol-1-yl]quinuclidine] | 0.3 nM | 214 °C | –
OCc1ccc(-c2cccc(-c3cn([C@H]4CN5CCC4CC5)nn3)c2)s1 [Compound 115, (R)-[5-[3-[1-[quinuclidin-3-yl]-1H-1,2,3-triazol-4-yl]phenyl]-2-thienyl]-methanol] | – | 176 °C | 0.5 nM
Fc1ccc(-c2ccc(-c3cn([C@H]4CN5CCC4CC5)nn3)cc2)cn1 | – | 181 °C | –
Brc1coc(-c2cn([C@H]3CN4CCC3CC4)nn2)c1 | – | 129 °C | –
Brc1ccc(-c2cn([C@H]3CN4CCC3CC4)nn2)o1 | – | 144 °C | –
OC1(c2cn(-c3ccc(Br)cc3)nn2)CN2CCC1CC2 (stereo not drawn) | – | 214 °C | –
OCc1ccc(-c2csc(-c3cn([C@H]4CN5CCC4CC5)nn3)c2)cc1 [Compound 86, (R)-[4-[5-[1-[quinuclidin-3-yl]-1H-1,2,3-triazol-4-yl]-3-thienyl]phenyl]methanol] | – | 196 °C | –
c1cc(-c2ccc(-c3cn([C@H]4CN5CCC4CC5)nn3)s2)ccc1CN1CCCCC1 [Compound 103, (R)-3-[4-[5-[4-(1-piperidylmethyl)phenyl]-2-thienyl]-1H-1,2,3-triazol-1-yl]quinuclidine] | 0.3 nM | 230 °C | –
Fc1ccc(-c2cn([C@@H]3CN4CCC3CC4)nn2)cc1 [Compound 57, (S)-3-(4-(4-Fluorophenyl)-1H-1,2,3-triazol-1-yl)quinuclidine] | 114 ± 38 nM | 139 °C | –
Brc1csc(-c2cn([C@H]3CN4CCC3CC4)nn2)c1 | – | 106 °C | –
COc1ccc(-n2cc(C3(O)CN4CCC3CC4)nn2)cc1 (stereo not drawn) | – | 174 °C | –
Nc1c(-c2ccccc2)nnn1[C@H]1CN2CCC1CC2 [Compound 60, (R)-4-Phenyl-1-(quinuclidin-3-yl)-1H-1,2,3-triazol-5-amine] | – | 120 °C | 11 ± 4 nM
OCc1cccc(-c2csc(-c3cn([C@H]4CN5CCC4CC5)nn3)c2)c1 [Compound 89, (R)-[3-[5-[1-[quinuclidin-3-yl]-1H-1,2,3-triazol-4-yl]-3-thienyl]phenyl]methanol] | 13 nM | 211 °C | –
COc1ccccc1-c1cn([C@H]2CN3CCC2CC3)nn1 [Compound 48, (R)-3-(4-(2-Methoxyphenyl)-1H-1,2,3-triazol-1-yl)quinuclidine] | – | 120 °C | –
Brc1ccc(-c2cn([C@H]3CN4CCC3CC4)nn2)s1 [Compound 54, (R)-3-(4-(5-Bromothiophen-2-yl)-1H-1,2,3-triazol-1-yl) quinuclidine] | – | 146 °C | 13 ± 4 nM
Brc1ccc(-c2cn([C@H]3CN4CCC3CC4)nn2)cc1 [Compound 41, (R)-3-(4-(4-Bromophenyl)-1H-1,2,3-triazol-1-yl)quinuclidine] | – | 158 °C | 6 ± 3 nM
CN1CCN(Cc2cccc(-c3ccc(-c4cn([C@H]5CN6CCC5CC6)nn4)s3)c2)CC1 | – | 155 °C | –
OCc1ccc(-c2cn([C@H]3CN4CCC3CC4)nn2)cc1 [Compound 38, (R)-(4-(1-(Quinuclidin-3-yl)-1H-1,2,3-triazol-4-yl)phenyl)methanol] | – | 200 °C | –
OCc1ccc(-c2ccc(-c3cn([C@H]4CN5CCC4CC5)nn3)cc2)s1 [Compound 114, (R)-[5-[4-[1-[quinuclidin-3-yl]-1H-1,2,3-triazol-4-yl]phenyl]-2-thienyl]methanol] | – | 234 °C | 160 nM
c1cc(-c2ccc(-c3cn([C@H]4CN5CCC4CC5)nn3)s2)ccc1CN1CCOCC1 [Compound 102] | 0.9 nM | 222 °C | –
c1ccc(-c2cn([C@H]3CN4CCC3CC4)nn2)cc1 [Compound 37, (R)-3-(4-Phenyl-1H-1,2,3-triazol-1-yl)quinuclidine] | 8 ± 4 nM | 132 °C | –
Clc1ccc(-c2cccc(-c3cn([C@H]4CN5CCC4CC5)nn3)c2)cn1 | – | 80 °C (dec.) | –
c1ccc(-c2cn(C3CCCN4CCCCC34)nn2)cc1 (stereo not drawn) | – | 150 °C | –
Fc1ccc(-c2cn([C@H]3CN4CCC3CC4)nn2)cc1 [Compound 42, (R)-3-(4-(4-Fluorophenyl)-1H-1,2,3-triazol-1-yl)quinuclidine] | – | 180 °C | –
c1ccc(-c2ccc(-c3cn([C@H]4CN5CCC4CC5)nn3)s2)cc1 | – | 184 °C | –
